Data taken from article PMC5267515, “In Vitro and Clinical Evaluations of the Drug-Drug Interaction Potential of a Metabotropic Glutamate 2/3 Receptor Agonist Prodrug with Intestinal Peptide Transporter 1” (Drug Metabolism and Disposition, 2017).
Entries after “also recorded” stand apart in the source; their conditions may differ. Where two headings read alike, the source gives them in different places. Blank lines part the entries; values can stand above or below the molecule they belong to. Non-standard residues stand in square brackets, D forms with d. Residues, ends and D or L forms follow the SMILES beside them. Sar = CNCC(=O)O

Key:
[1] = molecular target: T1, PEPT1 (Homo sapiens, UniProt P46059); assay: Inhibition of PEPT1-mediated [14C]LY2140023 uptake in transfected HeLa cells; details: for IC50: 10 μM [14C]LY2140023
T1 sequence (P46059 1-708): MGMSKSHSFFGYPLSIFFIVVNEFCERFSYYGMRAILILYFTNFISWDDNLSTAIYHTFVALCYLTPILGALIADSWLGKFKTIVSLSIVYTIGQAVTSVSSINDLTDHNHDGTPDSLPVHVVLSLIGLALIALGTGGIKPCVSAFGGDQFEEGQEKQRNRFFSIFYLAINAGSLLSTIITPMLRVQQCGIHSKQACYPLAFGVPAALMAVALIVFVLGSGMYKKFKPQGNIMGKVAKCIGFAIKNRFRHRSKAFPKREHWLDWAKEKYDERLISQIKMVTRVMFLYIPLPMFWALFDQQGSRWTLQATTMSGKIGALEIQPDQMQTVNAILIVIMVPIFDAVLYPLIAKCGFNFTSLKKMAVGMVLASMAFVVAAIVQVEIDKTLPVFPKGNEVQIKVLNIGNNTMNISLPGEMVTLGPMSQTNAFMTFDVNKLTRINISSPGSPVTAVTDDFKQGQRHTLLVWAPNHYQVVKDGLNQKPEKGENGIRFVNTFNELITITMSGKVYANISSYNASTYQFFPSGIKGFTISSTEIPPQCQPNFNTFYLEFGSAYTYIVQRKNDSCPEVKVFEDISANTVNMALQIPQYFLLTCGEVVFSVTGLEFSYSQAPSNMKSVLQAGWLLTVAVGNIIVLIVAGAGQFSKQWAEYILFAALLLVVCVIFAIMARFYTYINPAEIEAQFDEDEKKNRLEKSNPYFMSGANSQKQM
Description: Briefly, cells were seeded at a density of 65,000 cells/ml in 24-well plates. After achieving 50 to 80% confluency, cells were transfected with SLC15A1, gene for PEPT1 (accession number NM_005073) inserted in pcDNA3.1 or pcDNA3.1 empty vector (Invitrogen) using Fugene 6 (Roche, Indianapolis, IN) following the manufacturer’s protocol.
The solubility of compounds at these concentrations was checked by using a fiber-optic light source.
where [I] is an inhibitor concentration in micromoles. Top is the highest % activity in the absence of inhibitor, and S is the slope factor.

[2] = molecular target: T1, PEPT1; parameters: expressed in transfected cells; host or cells: HeLa cells (ATCC), transiently transfected with Fugene 6, pcDNA3.1 vector; method as in Zhang et al. (2004); details: Gly-Sar 50 μM; ref Zhang et al. (2004); read-out: IC50 against Gly-Sar; cited from earlier work
[3] = molecular target: T1, PEPT1; parameters: expressed in transfected cells; method as in Han, 1999; details: CHO cells transfected with PEPT1, ref Han, 1999, cited from earlier work
[4] = molecular target: T1, PEPT1; assay: System validation: proton- and concentration-dependent uptake of [14C]Gly-Sar in PEPT1 transfected HeLa cells; type: in vitro ADME; parameters: expressed in transfected cells; host or cells: HeLa cells (ATCC), transiently transfected with Fugene 6, pcDNA3.1 vector
Description: (§1) Assessment of both the proton-dependent uptake ([Liang et al., 1995]) and the concentration-dependent uptake of [^14C]Gly-Sar by the transiently transfected HeLa cells was used to validate the in vitro system. For proton-dependent uptake, [^14C]Gly-Sar was measured 24 hour post transfection at either pH 6.0 or 7.5. PEPT1- and empty vector-transfected cells were incubated with [^14C]Gly-Sar (50 µM) for 5 minutes at room temperature. Cells transfected with empty pcDNA3.1 vector were used to measure the passive diffusion of [^14C]Gly-Sar. For concentration-dependent uptake, transfected cells were incubated with [^14C]Gly-Sar at concentrations from 50 to 5000 µM for 3 minutes at room temperature. For both proton- and concentration-dependent experiments, cells were washed three times with ice-cold phosphate-buffered saline after incubation with Gly-Sar to stop uptake and then lysed with 0.3 ml 1% triton X-100 in phosphate-buffered saline for 30 minutes at room temperature. Scintillation counting was conducted to determine radioactivity, and protein levels were determined by the bicinchoninic acid method ([Smith et al., 1985]).

[5] = test system: MDCK-MDR1 cells; parameters: method as in data on file, Eli Lilly and Company; details: ref data on file, Eli Lilly and Company; cited from earlier work
[6] = Clinical drug interaction study (H8Y-MC-HBCF), plasma and urine pharmacokinetics in healthy subjects; details: for Vd/F: Vz/F; for Tmax: median (min–max)
Description: For the active moiety, the LLQ was 50 ng/ml and the ULQ was 5000 ng/ml.
Actual sampling times were used in the analyses with the exception of predose times, which were set to 0 hour. Area under the curve (AUC) values were determined using log-linear trapezoid methods.
The fraction of the dose excreted (fe) was also determined. For the active moiety dose, the 0.64 correction factor was used as described previously. […] The parameters were log transformed before analysis. The least squares means (LSM) for each treatment and the 90% confidence intervals (CI) for the difference in means between test and reference treatment groups were estimated from the model and back transformed from the log scale to provide estimates of the geometric means and 90% CIs for the ratio of geometric means. The analysis of tmax was based on a nonparametric method. Medians and range for treatments and the P value computed for comparison of median values using Wilcoxon signed rank test are presented.

[7] = molecular target: T1, PEPT1; assay: Proton- and time-dependent transport of prodrug and active moiety in PEPT1 transfected HeLa cells; type: in vitro ADME; parameters: expressed in transfected cells; host or cells: HeLa cells (ATCC), transiently transfected with Fugene 6, pcDNA3.1 vector; details: 30 μM, pH 6.0 or 7.5, PEPT1 vs empty vector transfected HeLa cells
Description: The PEPT1 mediated [^14C]LY2140023 (30 μM) and [^14C]LY404039 (30 μM) uptake was measured in cells 24 hours post transfection. The time-dependent transport of LY2140023 and LY404039 was conducted using buffers prepared at either pH 6.0 or 7.5 as described above. The cells transfected with empty pcDNA3.1 vector were used to measure the passive diffusion of LY2140023 and LY404039. The cells were incubated for 1, 2.5, 5, 7.5, 10, and 15 minutes at room temperature and were washed, lysed, and contents quantified as described above.

[8] = substrate: CSCC[C@H](N)C(=O)N[C@@]1(C(=O)O)CS(=O)(=O)[C@H]2[C@H](C(=O)O)[C@H]21; assay: Concentration-dependent uptake of [14C]LY2140023 in PEPT1 transfected HeLa cells (kinetic parameters); type: in vitro ADME, human
Description: The concentration dependent uptake of [^14C]LY2140023, ranging from 5 up to 149 μM, was determined in PEPT1 transfected HeLa cells with 2- to 3-minute incubation at room temperature. The mean passive diffusion of prodrug at each concentration was obtained in parallel experiments in HeLa cells transfected with pcDNA3.1 empty vector and subtracted from the uptake mediated by PEPT1. The corrected data were fitted by WinNonlin Professional, version 5.0.1 or 5.3 (Certara, L.P., St. Louis, MO). The kinetic parameters of the prodrug mediated by PEPT1 were estimated by utilizing the following equation: [drawing 1] where S is the substrate concentration (μM), Vmax is the maximum uptake rate (pmol/min/mg), and Km is the concentration where uptake reaches a half of Vmax (μM).

[9] = substrate: CN(CC(=O)O)C(=O)CN; assay: System validation: proton- and concentration-dependent uptake of [14C]Gly-Sar in PEPT1 transfected HeLa cells; type: in vitro ADME, human; details: other: 50 μM to 5 mM, pH 6.0
Description: as §1

[10] = IC50 against LY2140023, first of two separate experiments
[11] = IC50 against LY2140023, second of two separate experiments
[12] = Mean IC50 against LY2140023, mean of two separate experiments
[13] = LY2140023 + Valacyclovir vs LY2140023 Alone
[14] = other: experiment 1, 5 to 146 μM LY2140023, PEPT1 transfected HeLa cells, parameter ± S.E.M.
[15] = other: experiment 2, 6.4 to 149 μM LY2140023, PEPT1 transfected HeLa cells, parameter ± S.E.M.

IC50 [1, 10]: 1.77 ± 0.21 mM
IC50 [1, 11]: 1.56 ± 0.22 mM
IC50 [1, 12]: 1.67 mM
Molecule: NCC(=O)CCC(=O)O [ALA, 5-aminolevulinic acid]
IC50 [2]: 0.78 ± 0.26 mM

IC50 [1, 10]: 4.05 ± 0.44 mM
IC50 [1, 11]: 5.93 ± 1.47 mM
IC50 [1, 12]: 4.99 mM
Molecule: CC1=C(C(=O)O)N2C(=O)[C@@H](NC(=O)[C@H](N)c3ccc(O)cc3)[C@H]2SC1 [Cefadroxil]
IC50 [2]: 1.88 ± 0.35 mM

IC50 [1, 10]: 11 ± 2.64 mM
IC50 [1, 11]: 10.3 ± 0.42 mM
IC50 [1, 12]: 10.7 mM
Molecule: CCOC(=O)[C@H](CCc1ccccc1)N[C@@H](C)C(=O)N1CCC[C@H]1C(=O)O [Enalapril]
IC50 [2]: 2.13 ± 0.36 mM

IC50 [1, 10]: 1.29 ± 0.26 mM
IC50 [1, 11]: 0.69 ± 0.17 mM
IC50 [1, 12]: 0.99 mM
transport at pH 6.0 relative to pH 7.5 ([4]; [14C]Gly-Sar 50 µM, 5 minutes, PEPT1 transfected HeLa cells): approximately five
passive diffusion rate ([4]; control cells (empty pcDNA3.1 vector)): 0.0972 µL/min/mg
Molecule: CN(CC(=O)O)C(=O)CN [Gly-Sar, glycylsarcosine] (H-Gly-[Sar]-OH)
reported Vmax [3]: 3517 pmol/min/mg
Km ([3]; read-out: reported Km): 500 µM

inhibition at 25000 µM ([1]; HeLa, read-out: inhibition of [14C]LY2140023 uptake): < 50%
IC50 [1, 10]: 25.3 ± 2.57 mM
IC50 [1, 11]: 26.5 ± 9.38 mM
IC50 [1, 12]: 25.9 mM
Molecule: N[C@@H](Cc1ccc(O)c(O)c1)C(=O)O [L- DOPA, L-DOPA]
IC50 [2]: 14.9 ± 2.45 mM

CL/F ([6]; LY2140023 80 mg + valacyclovir 1000 mg coadministered, geometric mean (CV%)): 20.5 (24) L/hour
AUC(0-∞) Ratio Test/Reference [6, 13]: 0.94
Cmax Ratio Test/Reference [6, 13]: 0.92
active moiety present at the first sampling time ([6]; after administration of the prodrug): 18 of 21 subjects
half-life ([6]; human, plasma, oral, 80 mg): 3.05 h
AUC(0-inf) ([6]; human, plasma, oral, 80 mg, AUC(0-∞) LS Geometric Mean, LY2140023 Alone (Reference)): 2670 ng·h/mL
AUC(0-inf) ([6]; human, plasma, oral, 80 mg, AUC(0-∞), single 80-mg dose of LY2140023 alone, geometric mean (CV%)): 2600 ng·h/mL
Cmax ([6]; human, plasma, oral, 80 mg, Cmax LS Geometric Mean, LY2140023 Alone (Reference)): 484 ng/mL
Cmax ([6]; human, plasma, oral, 80 mg, Cmax, single 80-mg dose of LY2140023 alone, geometric mean (CV%)): 477 ng/mL
Vd/F ([6]; human, plasma, oral, 80 mg, single 80-mg dose of LY2140023 alone, geometric mean (CV%)): 86.5 L
Tmax ([6]; human, plasma, oral, 80 mg, single 80-mg dose of LY2140023 alone): 4 h
AUC(0-inf) ([6]; human, plasma, oral, AUC(0-∞) LS Geometric Mean, LY2140023 + Valacyclovir (Test)): 2500 ng·h/mL
AUC(0-inf) ([6]; human, plasma, oral, AUC(0-∞), LY2140023 80 mg + valacyclovir 1000 mg coadministered, geometric mean (CV%)): 2490 ng·h/mL
Cmax ([6]; human, plasma, oral, Cmax LS Geometric Mean, LY2140023 + Valacyclovir (Test)): 447 ng/mL
Cmax ([6]; human, plasma, oral, Cmax, LY2140023 80 mg + valacyclovir 1000 mg coadministered, geometric mean (CV%)): 444 ng/mL
Vd/F ([6]; human, plasma, oral, LY2140023 80 mg + valacyclovir 1000 mg coadministered, geometric mean (CV%)): 92.2 L
Tmax ([6]; human, plasma, oral, LY2140023 80 mg + valacyclovir 1000 mg coadministered): 4 h
CL renal ([6]; human, urine and plasma, oral, 80 mg): 213 mL/min
CL/F ([6]; single 80-mg dose of LY2140023 alone, geometric mean (CV%)): 19.7 (16) L/hour
Molecule: N[C@@]1(C(=O)O)CS(=O)(=O)[C@H]2[C@H](C(=O)O)[C@H]21 [LY404039]
passive permeability [5]: approximately 1 × 10^−6 cm/s
PEPT1 substrate status [7]: is not a PEPT1 substrate; also recorded: not transported by PEPT1

B1: PEPT1 (Homo sapiens) (protein)
chain: T1 sequence (P46059 1-708)
notes: expressed in transfected cells; host or cells: HeLa cells (ATCC), transiently transfected with Fugene 6, pcDNA3.1 vector
Km ([8]; other: approximate value over experiments): 30 µM
Km [8, 14]: 28.66 ± 5.01 µM
Vmax [8, 14]: 0.000238 µmol/min/mg
Km [8, 15]: 29.98 ± 5.29 µM
Vmax [8, 15]: 0.000573 µmol/min/mg
Km [9]: 427.9 µM
Vmax [9]: 3975.3 pmol/min/mg
